pKi: −log10 of the molar value. Values after ≈ are worked out from the molar mass of the structure shown.
How the values were obtained:
[1] = tested on: Mycolicibacterium smegmatis; assay: Antimycobacterial activity against Mycobacterium smegmatis mc2 155 incubated for 2 days by spectrophotometric based assay; format: functional; conditions: MC2 155, 48 h
[2] = tested on: Enterococcus faecalis; assay: Antimicrobial activity against Enterococcus faecalis ATCC 51922 by broth microdilution assay; format: functional
[3] = tested on: Klebsiella pneumoniae; assay: Antimicrobial activity against Klebsiella pneumoniae 700603 by broth microdilution assay; format: functional
[4] = tested on: Mycobacterium tuberculosis; assay: Antitubercular activity against Mycobacterium tuberculosis H37Rv ATCC 27294 incubated for 7 days by microplate alamar blue assay; format: functional; conditions: H37Rv ATCC 27294, 168 h
[5] = tested on: Pseudomonas aeruginosa; assay: Antimicrobial activity against Pseudomonas aeruginosa ATCC 27853 by broth microdilution assay; format: functional
[6] = tested on: Enterococcus faecalis; assay: Antimicrobial activity against Enterococcus faecalis ATCC 29212 by broth microdilution assay; format: functional
[7] = tested on: Listeria monocytogenes; assay: Antimicrobial activity against Listeria monocytogenes ATCC 1911 by broth microdilution assay; format: functional
[8] = tested on: Escherichia coli; assay: Antimicrobial activity against Escherichia coli ATCC 25922 by broth microdilution assay; format: functional
[9] = tested on: Staphylococcus aureus; assay: Antimicrobial activity against Staphylococcus aureus ATCC 25923 by broth microdilution assay; format: functional
[10] = tested on: Escherichia coli; assay: Antimicrobial activity against Escherichia coli ATCC 35218 by broth microdilution assay; format: functional
[11] = tested on: Mycolicibacterium smegmatis; assay: Antimicrobial activity against Mycobacterium smegmatis ATCC 607; format: functional; conditions: Mycolicibacterium smegmatis, ATCC 607; read-out: MIC
[12] = Inhibition of Mycobacterium smegmatis ATCC 607 dihydrofolic reductase; set-up: species or system Mycolicibacterium smegmatis
[13] = tested on: Mycolicibacterium smegmatis; assay: Inhibition of Mycobacterium smegmatis ATCC 607 dihydrofolic reductase assessed as ratio of Km to Ki
[14] = tested on: Mycobacterium leprae; assay: Anti-leprotic activity against Mycobacterium leprae assessed as maximum bactericidal dilutions; format: functional
[15] = tested on: Mycobacterium leprae; assay: Anti-leprotic activity against Mycobacterium leprae infected in albino mouse assessed survival against infection at 400 mg/kg, sc administered 58 days post-infection and subsequent compound dosing at 200 mg/kg at 0.5, 1 or 2 months interval; format: functional
[16] = tested on: Plasmodium berghei; assay: Antimalarial activity against Plasmodium berghei infected in albino mouse assessed survival against infection at 400 mg/kg, sc administered as single dose; format: functional
[17] = Half life in rat at 400 mg/kg, sc administered as single dose; format: ADME, organism-based; conditions: in vivo
[18] = Drug excretion in rat urine at 400 mg/kg, sc administered as single dose measured after 30 days; format: ADME, organism-based; conditions: read-out: Drug excretion
[19] = tested on: Mycolicibacterium smegmatis; assay: Antimicrobial activity against Mycobacterium smegmatis incubated for 24 hrs by broth microdilution assay; format: functional
[20] = tested on: Mycolicibacterium aurum; assay: Antimicrobial activity against Mycobacterium aurum incubated for 24 hrs by broth microdilution assay; format: functional
[21] = tested on: Mycolicibacterium vaccae; assay: Antimicrobial activity against Mycobacterium vaccae incubated for 24 hrs by broth microdilution assay; format: functional
[22] = tested on: Mycobacterium leprae; assay: Anti-leprotic activity against Mycobacterium leprae infected in 538 CBA mouse assessed as number of Mycobacterium leprae in paw pads at 2 mg/kg administrated via gastric tube 5 times a week and measured 7 months post infection; format: functional
[23] = tested on: Mycobacterium leprae; assay: Anti-leprotic activity against Mycobacterium leprae infected in 538 CBA mouse assessed as number of Mycobacterium leprae in paw pads at 6 mg/kg administrated via gastric tube 5 times a week and measured 7 months post infection; format: functional
[24] = tested on: Mycolicibacterium fortuitum; assay: Antimicrobial activity against Mycobacterium fortuitum incubated for 24 hrs by broth microdilution assay; format: functional
[25] = tested on: Monocyte; assay: Antiinflammatory activity in human monocytes assessed as inhibition of LPS-induced TNFaplha production at 50 uM preincubated for 15 mins followed by LPS addition and measured after 4 hrs by ELISA relative to control; format: functional
[26] = Cytotoxicity against LPS-induced human monocytes assessed as cell viability at 50 uM by tryphan blue staining based assay relative to control; set-up: species or system Monocyte; conditions: read-out: Activity

CCCCCCCCC(COC1CCCC1)C(=O)O (stereo unspecified)
MIC99 [1]: 3600 µM (≈ 973 µg/mL)

FC(F)(F)c1ccc(NC(=S)N/N=C/c2ccc(Br)cc2)cc1
MIC [2]: 400 µg/mL (≈ 994 µM)
MIC [3]: 400 µg/mL (≈ 994 µM)
MIC [4]: 400 µg/mL (≈ 994 µM)
MIC [5]: 400 µg/mL (≈ 994 µM)
MIC [6]: 400 µg/mL (≈ 994 µM)
MIC [7]: 400 µg/mL (≈ 994 µM)
MIC [8]: 400 µg/mL (≈ 994 µM)
MIC [9]: 400 µg/mL (≈ 994 µM)
MIC [10]: 800 µg/mL (≈ 1990 µM)

COc1cc(CCc2cnc3nc(N)nc(N)c3n2)cc(OC)c1OC
MIC [11]: > 281 µM
pKi [12]: 7.74
Ratio [13]: 2050

CCCCCCCC(CCC1CCCC1)C(=O)O (stereo unspecified)
fold change (FC) [14]: 170

COc1cc(Cc2cnc(N)nc2N)cc(OC)c1OC [TRIMETHOPRIM]
MIC [11]: 34 µM (≈ 9.87 µg/mL)
pKi [12]: 7.15
Ratio [13]: 54.6

CCCCCCCCC(CCC1CCCCC1)C(=O)O (stereo unspecified)
fold change (FC) [14]: 220

CCCCCCCCCCC(C(=O)O)C1CCCC1 (stereo unspecified)
fold change (FC) [14]: 143

CCCCCCCCC(CCC1CCCC1)C(=O)O (stereo unspecified)
fold change (FC) [14]: 180

CCCCCCCCCCC(C(=O)O)C1C=CCC1 (stereo unspecified)
fold change (FC) [14]: 167

CC(=O)Nc1ccc(S(=O)(=O)c2ccc(N(C)C(C)=O)cc2)cc1
Survival [15]: >8 weeks
Survival [16]: 6 weeks
half-life [17]: 27 days
dose excreted at 720 h [18]: 44%

O=C1c2ccccc2C(=O)N1c1ccc(S(=O)(=O)Nc2ccncn2)cc1
MIC99 [1]: 2300 µM (≈ 875 µg/mL)

FC(F)(F)c1ccc(NC(=S)N/N=C/c2ccc(Cl)cc2)cc1
MIC [2]: 400 µg/mL (≈ 1120 µM)
MIC [3]: 400 µg/mL (≈ 1120 µM)
MIC [4]: 400 µg/mL (≈ 1120 µM)
MIC [5]: 400 µg/mL (≈ 1120 µM)
MIC [6]: 400 µg/mL (≈ 1120 µM)
MIC [7]: 800 µg/mL (≈ 2240 µM)
MIC [8]: 400 µg/mL (≈ 1120 µM)
MIC [9]: 400 µg/mL (≈ 1120 µM)
MIC [10]: 400 µg/mL (≈ 1120 µM)

CN(C)c1ncnc(SC(=S)N2CCCC2)c1[N+](=O)[O-]
MIC [19]: 3.12 µg/mL (≈ 9.96 µM)
MIC [20]: 3.12 µg/mL (≈ 9.96 µM)
MIC [21]: 1.56 µg/mL (≈ 4.98 µM)
Activity [22]: 4.43 ×10⁷ No_unit
Activity [23]: 2.14 ×10⁷ No_unit
MIC [24]: 1.56 µg/mL (≈ 4.98 µM)

CCC1(N2C(=O)c3c(F)c(F)c(F)c(F)c3C2=O)C(=O)NC(=O)N(c2ccccc2)C1=O (stereo unspecified)
inhibition at 50 µM [25]: 16%
viability at 50 µM [26]: 68%

Cc1cnc2nc(N)nc(N)c2n1
MIC [11]: > 568 µM
pKi [12]: 5.29
Ratio [13]: 0.8

CCCCCc1cnc2nc(N)nc(N)c2n1
MIC [11]: 862 µM (≈ 200 µg/mL)
pKi [12]: 8.92
Ratio [13]: 3420

O=C1c2ccccc2C(=O)N1c1ccc(S(=O)(=O)Nc2cnccn2)cc1
MIC99 [1]: 6800 µM (≈ 2590 µg/mL)

CCCCCCCCCC(C(=O)O)C1C=CCC1 (stereo unspecified)
fold change (FC) [14]: 150

CCCCCCC(CCC1CCCCC1)C(=O)O (stereo unspecified)
fold change (FC) [14]: 125

N#Cc1ccc(/C=N/NC(=S)Nc2ccc(C(F)(F)F)cc2)cc1
MIC [2]: 400 µg/mL (≈ 1150 µM)
MIC [3]: 400 µg/mL (≈ 1150 µM)
MIC [4]: 200 µg/mL (≈ 574 µM)
MIC [5]: 400 µg/mL (≈ 1150 µM)
MIC [6]: 200 µg/mL (≈ 574 µM)
MIC [7]: 400 µg/mL (≈ 1150 µM)
MIC [8]: 400 µg/mL (≈ 1150 µM)
MIC [9]: 400 µg/mL (≈ 1150 µM)
MIC [10]: 400 µg/mL (≈ 1150 µM)

Nc1nc(N)c2nc(Cc3ccc(Cl)c(Cl)c3)cnc2n1
MIC [11]: > 311 µM
pKi [12]: 8.70
Ratio [13]: 58.5

CCCCCCCCCC(C(=O)O)C1CCCCC1 (stereo unspecified)
fold change (FC) [14]: 190

CC(=O)N(C)c1ccc(S(=O)(=O)c2ccc(N(C)C(C)=O)cc2)cc1
Survival [15]: >8 weeks
Survival [16]: 9 weeks
half-life [17]: 10 days
dose excreted at 720 h [18]: 85%

CCCCCCCCCCCC(C(=O)O)C1CCCC1 (stereo unspecified)
fold change (FC) [14]: 153

FC(F)(F)c1ccc(/C=N/NC(=S)Nc2ccc(C(F)(F)F)cc2)cc1
MIC [2]: 400 µg/mL (≈ 1020 µM)
MIC [3]: 400 µg/mL (≈ 1020 µM)
MIC [4]: 200 µg/mL (≈ 511 µM)
MIC [5]: 400 µg/mL (≈ 1020 µM)
MIC [6]: 100 µg/mL (≈ 256 µM)
MIC [7]: 800 µg/mL (≈ 2040 µM)
MIC [8]: 400 µg/mL (≈ 1020 µM)
MIC [9]: 400 µg/mL (≈ 1020 µM)
MIC [10]: 400 µg/mL (≈ 1020 µM)

CCC1(N2C(=O)c3ccccc3C2=O)C(=O)NC(=O)N(C2CCCCC2)C1=O (stereo unspecified)
inhibition at 50 µM [25]: < 10%
viability at 50 µM [26]: 87%

Nc1ccc(F)c(F)c1
inhibition at 50 µM [25]: 19%
viability at 50 µM [26]: 99%

COc1cc(Cc2cnc3nc(N)nc(N)c3n2)cc(OC)c1OC
MIC [11]: 347 µM (≈ 119 µg/mL)
pKi [12]: 8.30
Ratio [13]: 230

— ChEMBL document CHEMBL4613212, “Insights of synthetic analogues of anti-leprosy agents” (Bioorg Med Chem, 2019)
